How the values were obtained:
[1] = target: T1, Tyrosine-protein phosphatase non-receptor type 1 (Homo sapiens, UniProt P18031); experiment: Inhibition of N-terminal GST tagged recombinant human PTP1B catalytic domain (1 to 321 residues) expressed in Escherichia coli using pNPP as substrate preincubated for 10 mins followed by substrate addition and measured every 5 mins for 30 mins
T1 sequence (P18031 whole entry): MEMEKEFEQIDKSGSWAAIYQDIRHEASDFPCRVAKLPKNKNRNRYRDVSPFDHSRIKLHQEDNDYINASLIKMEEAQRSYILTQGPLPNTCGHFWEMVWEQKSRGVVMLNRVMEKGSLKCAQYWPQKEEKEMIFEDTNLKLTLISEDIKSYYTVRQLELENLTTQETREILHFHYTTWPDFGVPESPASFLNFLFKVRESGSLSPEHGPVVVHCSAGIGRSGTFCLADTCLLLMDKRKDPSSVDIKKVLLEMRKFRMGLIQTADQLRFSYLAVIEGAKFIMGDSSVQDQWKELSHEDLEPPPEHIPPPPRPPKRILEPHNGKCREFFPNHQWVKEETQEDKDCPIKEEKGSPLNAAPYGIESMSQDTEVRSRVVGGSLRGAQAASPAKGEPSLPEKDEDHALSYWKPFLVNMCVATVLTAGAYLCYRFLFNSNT

[2] = target: T1, Tyrosine-protein phosphatase non-receptor type 1; experiment: (§1) Competitive inhibition of N-terminal GST-tagged recombinant human PTP1B catalytic domain (1 to 321 residues) expressed in Escherichia coli assessed as inhibitory constant using pNPP as substrate preincubated for 10 mins followed by incubation with substrate for 30 mins and measured every 5 mins for 30 mins by Lineweaver-burk plot based Dixon plot analysis
[3] = target: T2, Tyrosine-protein phosphatase non-receptor type 1 (Homo sapiens) (UniProt P18031); experiment: as §1, with “Ratio” for “Competitive inhibition”, “of kinetic constant Kik to Kiv at” for “of”, “coli” for “coli assessed as inhibitory constant”, “plot” for “plot based Dixon plot”
T2 sequence (whole entry): T1 sequence (P18031 whole entry)

SMILES	IC50 [1]	Ki [2]	Ratio [3]
COC(=O)[C@H](CO)[C@@H]1C(CO)=C(C)C[C@H]1O	> 80 µM		
COC(=O)C1=C(C)C[C@@H](O)[C@@H]1[C@H](CO)C(=O)OC	> 80 µM		
CC1=C2COC(=O)[C@H](CO)[C@H]2[C@H](O)C1	9.8 µM	4.13 µM	6.86 to 37.6
COC(=O)C1=CO[C@@]2(C)C[C@@H](O)[C@H]1[C@@H]2CO	22.2 µM		
COC(=O)C1=C(C)C[C@@H](O)[C@@H]1CCO	> 80 µM		
CC1=C(CO)[C@@H](CCO)[C@H](O)C1	> 80 µM		
CC1=C[C@@H](O)[C@@H]2[C@@H](CO)C(=O)O[C@]12CO	43.6 µM		
CC1=C2COC(=O)[C@@H](CO)[C@H]2[C@H](O)C1	8.9 µM	2.57 µM	6.86 to 37.6
COC(=O)[C@H]1COC(=O)C2=C(C)C[C@@H](O)[C@@H]21	> 80 µM		
CC1=C2C(=O)OCC[C@H]2[C@H](O)C1	> 80 µM		
COC(=O)[C@@H](CO)[C@@H]1C(CO)=C(C)C[C@H]1O	> 80 µM		
